From US7250410B2, “Cyclic nucleotide phosphodiesterase inhibitors, preparation and uses thereof” (Via Pharmaceuticals, Inc., priority 2001, dated 2007) come the findings set out here.

One experiment concerns the target T1, PDE2 (Bos taurus, UniProt P14099).
T1 construct: PDE2 was prepared from bovine endothelial cells by the same methods; endogenous in cells; host or cells: bovine vascular endothelial cells, DEAE-Sephacel fraction
T1 sequence (P14099 1-921): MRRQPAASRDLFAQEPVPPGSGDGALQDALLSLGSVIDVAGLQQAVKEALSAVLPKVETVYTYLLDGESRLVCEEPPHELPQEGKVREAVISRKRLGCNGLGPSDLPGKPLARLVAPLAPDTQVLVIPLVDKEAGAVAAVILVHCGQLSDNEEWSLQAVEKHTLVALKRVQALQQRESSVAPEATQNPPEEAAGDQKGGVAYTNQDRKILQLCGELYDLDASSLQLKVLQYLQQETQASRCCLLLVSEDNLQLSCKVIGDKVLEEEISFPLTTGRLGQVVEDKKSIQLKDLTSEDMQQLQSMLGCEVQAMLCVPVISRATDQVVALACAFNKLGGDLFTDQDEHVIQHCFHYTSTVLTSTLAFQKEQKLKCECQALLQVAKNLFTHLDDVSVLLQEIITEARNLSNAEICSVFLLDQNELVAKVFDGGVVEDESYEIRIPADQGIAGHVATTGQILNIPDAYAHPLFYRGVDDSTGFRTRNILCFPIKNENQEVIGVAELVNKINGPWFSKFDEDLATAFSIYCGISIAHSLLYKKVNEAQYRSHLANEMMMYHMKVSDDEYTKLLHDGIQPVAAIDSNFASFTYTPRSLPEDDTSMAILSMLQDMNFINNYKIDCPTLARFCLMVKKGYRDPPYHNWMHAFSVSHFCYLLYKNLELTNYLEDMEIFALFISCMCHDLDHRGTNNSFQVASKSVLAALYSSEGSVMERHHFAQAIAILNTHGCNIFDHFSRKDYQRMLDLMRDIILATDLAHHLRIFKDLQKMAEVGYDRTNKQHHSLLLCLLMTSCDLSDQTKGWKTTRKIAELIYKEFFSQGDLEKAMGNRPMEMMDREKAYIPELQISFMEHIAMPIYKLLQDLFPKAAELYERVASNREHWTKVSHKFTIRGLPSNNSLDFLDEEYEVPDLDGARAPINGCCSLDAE
As to the kind of experiment: Selectivity: inhibition of PDE2, radioenzymatic phosphodiesterase assay. The class given is biochemical, bovine. The note with it: Table 4 Selectivity; compound at 10 μM; read-out: PDE2 percentage inhibition at 10 μM. Here is the method: A 3 g segment of bovine aortic media cut into pieces with scissors was homogenized with an ultra-turrax then a potter glass/glass homogenizer in 7 volumes by weight of buffer A containing a protease inhibitor cocktail (20 mM Tris-HCl, 0.25 M saccharose, 2 mM magnesium acetate, 1 mM dithiothreitol, 5 mM EGTA, 2000 U/ml aprotinin, 10 mg/l leupeptin and 10 mg/l soya trypsic inhibitor). The homogenizate was centrifuged at 105,000 g for 1 hour. The supernatant was loaded on a DEAE-Sephacel column (15×1.6 cm) pre-equilibrated with buffer B (buffer A without the saccharose, EGTA and protease inhibitors). The column was washed until there was no detectable absorption at 280 nm, then eluted with a linear gradient of NaCl (0–0.5 M) in buffer B. 3-ml fractions were collected and enzyme activity was determined under the conditions described hereinafter to localize the different enzymes PDE1, PDE3, PDE4 and PDE5, which were aliquoted and frozen at −80° C. (Lugnier et al., Biochem. Phamacol., 35 (1986) 1746–1751). PDE2 was prepared from bovine endothelial cells by the same methods (Lugnier and Schini, Biochem. Pharmacol. 1990, 39; 75–84).
Cyclic nucleotide phosphodiesterase activity was determined by a radioenzymatic method using tritium-labelled cyclic GMP or AMP (1 μM) as substrate (Lugnier et al., 1986). ^3H-labelled adenosine or guanosine monophosphate formed by hydrolysis of the radiolabelled cyclic nucleotide was then converted to ^3H-labelled adenosine or guanosine in a second reaction with […] in excess. The nucleoside formed was separated from the nucleotides by anion exchange chromatography. Nucleoside radioactivity was determined by liquid scintillation counting. Enzymatic incubations were carried out under conditions allowing no more than 15% hydrolysis of the substrate; each point was performed in duplicate.
The activity of the compounds was evaluated on other phosphodiesterase isoforms, particularly basal state or calmodulin-activated PDE1 from vascular smooth muscle, basal state or cyclic GMP-activated PDE2 from vascular endothelial cells, PDE3 and PDE5 from vascular smooth muscle.
The results obtained are presented in Table 4 hereinafter and are expressed as the percentage inhibition of enzymatic activity produced by […] of the tested compound.

The test system of the next experiment is IL1β, IL6 and IL8. The experiment is described as follows: IL1β, IL6 and IL8 secretion by LPS-activated mononuclear cells from venous blood. The class given is cell-based, human.

With `CCOc1cc2c(cc1OCC)C(c1ccccc1)=NCC(=O)N2` [XXIIag, 7,8-diethoxy-5-phenyl-1,3-dihydro-2H-1,4-benzodiazepin-2-one], the inhibition at 10 µM on PDE2 was 17%. Also, the “inhibition of the secretion of IL1β” value in the experiment on IL1β, IL6 and IL8 (in words) is recorded as “capable of inhibiting the secretion”.
`CCOc1cc2c(cc1OC)C(c1ccccc1)=NCC(=O)N2C` [IIda, 8-ethoxy-7-methoxy-1-methyl-5-phenyl-1,3-dihydro-2H-1,4-benzodiazepin-2-one]: the inhibition at 10 µM on PDE2 is 7%. Besides, in the experiment with IL1β, IL6 and IL8 (compound at 1 μM), the “IL1β, IL6 and IL8 secretion levels” value is reported as “not at all altered”.
